In patent US20170101669A1, “Nucleic Acid Based Sensor and Methods Thereof” (National Centre for Biological Sciences, priority 2014, published 2017):

Assays:
[1] = tested on: endosomal compartments of Drosophila hemocytes; assay: Chloride concentration in endosomal compartments of hemocytes under chemical perturbation, measured with Clensor; assay type: cell-based; conditions: +NPPB
Method: Hemocytes are washed with 1×M1 buffer (150 mM NaCl, […], 1 mM CaCl2, 1 mM MgCl2, 20 mM HEPES pH 7.2) prior to labeling. Hemocytes are incubated with 2 μM of Clensor sample (diluted in 1×M1 buffer) for 5-10 minutes (depending on the signal again, *for measurements in early endosomes 5 min pulse is given*) and then washed 3-4 times with 1×M1 and then chased for an additional 5 to 120 minutes. For a chase longer than 5 minutes, 1×M1 is replaced by complete insect medium and transferred to a 20° C. incubator. For 5 minute chases, cells are washed and then imaged in 1×M1.
For Chloride ion […] measurement experiments, after pulsing with Clensor, cells are chased for (i) 5 min (Early Endosome), (ii) 60 min (Late endosome) and (iii) 120 min (Lysosome). Each set of cells are then imaged live, acquiring two images for each set of cells. (i) Ex=480/20, Dichroic=500-600 BP, Em=535/40 and (ii) Ex=640/30, Dichroic=665 LP, Em=690/50.
Hemocytes are pulsed with 2 μM of Clensor sample for 30 minutes (for development of a signal), washed 3-4 times with 1×M1 followed by a 5 minute chase in same medium. Cells are then fixed with 200 μL 2.5% paraformaldehyde (PFA) for 20 minutes at room temperature, quickly washed 3 times and retained in 1×M1. To obtain intracellular Chloride ion (Cl^−) calibration curve, perfusate and endosomal Chloride ion (Cl^−) concentration are equalized by incubating the previously fixed cells in 120 mM KCl/KNO3, 20 mM NaCl/NaNO3, 1 mM CaCl2/Ca(NO3)2, 1 mM MgCl2/Mg(NO3)2, and 10 mM HEPES at pH 7.2, with Chloride ion (Cl^−) concentration from about 0-80 mM (NO3^− replacing Cl^−) for about 3 hours at room temperature. Chloride clamping solution contains Nigericin (10 μM)+Valinomycin (10 μM)+CCCP (5 μM)+Monensin (10 μM)+Bafilomycin (200 nM). The cells are imaged in the same buffer.
Here, the hemocytes are treated with a non-specific chloride ion channel blocker NPPB (5-nitro-2-(3-phenylpropylamino)-benzoate).

[2] = tested on: Drosophila hemocytes; assay: Bafilomycin perturbation of endosomal chloride concentration and pH in hemocytes; assay type: cell-based
Method: Bafilomycin is used to perturb endosomal Chloride ion concentration [Cl^−] and these perturbations are followed by changes in R/G ratios in Clensor labeled endosomes of Drosophila hemocytes. pH is simultaneously measured in this system by pulsing with about 2 mg/mL 10 kDa FITC-dextran (FD10) for about 5 minutes at room temperature and chased for about 120 minutes at about 20° C. The cells are then incubated with 1×M1 buffer containing about 200 nM Bafilomycin followed by a 120 minute chase at about 20° C. in the same buffer.
Intracellular pH is measured by the Dual Excitation Method. λEx480/λEx 430 emission ratios show about 2.1 fold decrease in pH as a function of time till about 120 minutes post endocytosis, indicating the expected decrease in pH in hemocytes (FIG. 16a, black). Upon Bafilomycin treatment, endosomal pH is reversed as given by gradual increase (˜2.2 fold) in λEx480/λEx 430 emission ratios (FIG. 16a, black). […]
FIG. 16 depicts the integrity of Clensor during endosomal maturation. […] Chloride concentrations and pH values are monitored after Bafilomycin treatment. […] Endosomal pH is monitored by ratios of the intensity at 530 nm when the FITC is excited at 480 nm and 430 nm (λex480/λex 430). […]

Compound | Mean [Cl−] ± s.e.m, EE ([1]; early endosomes, 5 min) [mM] | Mean [Cl−] ± s.e.m, LE ([1]; late endosomes, 60 min) [mM] | Mean [Cl−] ± s.e.m, LY ([1]; lysosomes, 120 min) [mM] | increase in λEx480/λEx 430 emission ratios (reversal of endosomal pH) ([2]; 200 nM Bafilomycin, FITC-dextran labeled hemocytes, after 120 min chase) [fold] | change of R/G ratios of Clensor labeled endosomes (endosomal [Cl−]) ([2]; after 200 nM Bafilomycin treatment)
O=C(O)c1cc([N+](=O)[O-])ccc1NCCCc1ccccc1 [NPPB, 5-nitro-2-(3-phenylpropylamino)-benzoate] | 9.3 ± 1.5 | 33.8 ± 2.5 | 86.5 ± 3.5 | – | –
Bafilomycin | – | – | – | ~2.2 | R/G ratios gradually decrease
